Series [1] concerns ALDH (acetaldehyde dehydrogenase) gene. Kind of series: qPCR of ALDH mRNA in HepG2 cells. The following applies: HepG2, 10 μM, 1 and 2 h. It is filed as cell-based, human. As for the experimental part:
To evaluate the role of the GFM in ethanol metabolism, the genes of primary enzymes (ADH, ALDH, CYP2E1, and catalase) involved in eliminating ethanol from the body were quantified by real-time qPCR. Particularly, total RNA extracts from HepG2 cells (1×10^6 cells/well) treated with ethanol (0.2 mM) or GFM (10 μg/ml) were prepared using the Trizol method (Invitrogen) after 1, 2, 4 and 24 h after the treatment. And then, cDNA was synthesized from RNA by reverse transcription of 1 μg of total RNA using the Improm-II reverse transcription system (Promega) and oligo dT primers in a total volume of 20 μL. PCR amplification was performed using the primers described in Table 1 (Bioneer, Deajeon, Republic of Korea). Quantitative real-time PCR reactions were run on a Rotor-Gene 6000 (Corbett Research, Sydney, Australia) using SYBR Green PCR Master Mix (Qiagen, Valencia, Calif., USA) in 20 μL reaction mixtures. Each real-time-PCR master mix contained 10 μL 2× enzyme mastermix, 7.0 μL RNase free water, 1 μL of each primer (10 μM each) and 1 μL diluted template. […] Relative sample expression levels were calculated using Rotor-Gene 6000 Series Software 1.7 and were expressed relative to glyceraldehyde 3-phosphate dehydrogenase and corrected for between-run variability. Data for the experimental samples were expressed as a percentage of the internal control gene. […]
In general terms: Real-time PCR tracks product formation cycle by cycle.

A further series deals with HepG2 cells. Kind of series: Cytotoxicity assay by LDH release. Format: cell-based, human. To be noted: HepG2, ethanol 200 mM. As for the experimental part:
HepG2 human hepatoma cells (Korean Cell Line Bank, Seoul, Republic of Korea) were grown in RPMI1640 complete medium (Hyclone, Logan, Utah, USA) supplemented with 10% fetal bovine serum, 100 U/mL penicillin, and 100 μg/mL streptomycin (Invitrogen, Carlsbad, Calif., USA). The cultures were maintained under 5% CO2 at 37° C. in tissue culture flasks. For all experiments, cells were grown to >90% confluency and subjected to no more than 20 cell passages. The medium was changed every 2-3 days. Subconfluent cells were harvested and seeded at a density of 5×10^5 cells or 1.5×10^6 cells in poly-L-lysine-coated 35 mm or 60 mm culture plates. […]
Cytotoxicity of the GFM was investigated by measuring lactate dehydrogenase (LDH) release from HepG2 cells. That is, the cytotoxicity induced by the GFM in HepG2 cells was quantified by measuring LDH release at varying ranges of concentration (1-1,000 μg/mL). Cytotoxicity in experimental samples was determined as % LDH release, and the data from triplicate cultures were expressed as the mean±standard deviation. Concentration-dependent cytotoxicity determined as % LDH release was compared with non-treated control cells (Ctrl) and H2O2 (1 mM)-treated control was used as a positive control. […] Formazan was quantified spectrophotometrically by measuring its absorbance at 490 nm (Spectra Max 340, Molecular Devices, Sunnyvale, Calif., USA).
A general note: Release of lactate dehydrogenase indicates damage to the cell membrane.

The conditions of series [2]: male, BALB/c, mouse, in vivo, 1 h.
Procedure: Male BALB/c mice (7-week old) were purchased from Samtaco (Osan, Kyunggi-do, Republic of Korea), and were adapted to laboratory conditions (temperature: 20±2° C., relative humidity: 50%, light/dark cycle: 12 h) for 1 week. […] Perfused liver tissues from the treated mice were prepared using the Trizol method (Invitrogen, USA).
The enzymatic analysis was conducted with ALDH according to the method of Lundquist (Lundquist F. et al., Biochem. J., 68:172-177, 1958; Lundquist F. et al., In: Bergmeier H U (ed) Methods of enzymatic analysis. 2nd ed. Weinheim/New York and London, 230-257, 1974). This enzymatic test for alcohol utilizes the coenzyme NAD and ADH. The amount of NADH formed is stoichiometric to the amount of acetaldehyde. NADH was determined by light absorbance at 365 nm.
A short description of series [3]: Hepatoprotective effect: serum GOT and GPT after oral ethanol. To be noted: 20% ethanol only, 300 μl oral, 8 h after ethanol.
Procedure: (§1) GFM suspended in saline solution was orally administrated (25 mg/kg) and CTD dried and then resolved in saline solution (50 mg/kg) was used as positive control (50 mg/kg). Before the administration, the experimental animals fasted 4 hours, and after the administration additional 1 hour of fasting was performed.
Series [4] in a line: Side effects: body weights, organ masses, symptoms after administration. The following applies: ethanol only (300 μl of 20% ethanol oral), 8 h.
Procedure: as §1

As to `CCCCC/C=C\C/C=C\CCCCCCCC(=O)O` [LA, linoleic acid], the “ALDH mRNA expression induced by fatty acid” value in series [1] is “effectiveness of GFM might be mainly from LA”.

Regarding `CCO` [ethanol], the “cytotoxicity (% LDH release)” value with HepG2 cells is given as “not cytotoxic”. For the same compound, the “serum ethanol detected by GC” value in series [2] is recorded as 12.2%. In addition, in series [3], the “serum GOT” value was 259.00 ± 17.44 IU/L and the “serum GPT” value was determined as 150.50 ± 10.13 IU/L. In series [4], this compound registered a Body weight of 21.00 ± 0.57 g, a Liver mass of 1.31 ± 0.11 g and a Spleen mass of 0.09 ± 0.01 g.
